According to patent US10758534B2 (Vertex Pharmaceuticals Incorporated, priority 2014, dated 2020):
Read-outs that look alike come from different tables or passages of the source.

Target: T1, F508del (Homo sapiens, UniProt P13569, DEL508-508)
T1 construct: expressed in transfected cells
Test: Protocol 2: FRET membrane potential optical assay (VIPR), identification of correction compounds
Type: cell-based
Procedure, shortened: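 NIH3T3 mouse fibroblasts stably expressing F508del were treated with test compound for 16 hrs at 37° C. in serum-free medium; 27° C. incubation served as positive control. F508del was activated with 10 μM forskolin plus 20 μM genistein in Cl^−-free medium, and Cl^− efflux-driven depolarization was read by DiSBAC2(3)/CC2-DMPE FRET.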

[1] = Table 3, compounds of Table 1 as modulators of CFTR activity, protocol not stated
[2] = F508del CFTR modulator activity, compounds of Table 1, read-out: EC30

T1 sequence (P13569 with tags, fused parts or gaps DEL508-508): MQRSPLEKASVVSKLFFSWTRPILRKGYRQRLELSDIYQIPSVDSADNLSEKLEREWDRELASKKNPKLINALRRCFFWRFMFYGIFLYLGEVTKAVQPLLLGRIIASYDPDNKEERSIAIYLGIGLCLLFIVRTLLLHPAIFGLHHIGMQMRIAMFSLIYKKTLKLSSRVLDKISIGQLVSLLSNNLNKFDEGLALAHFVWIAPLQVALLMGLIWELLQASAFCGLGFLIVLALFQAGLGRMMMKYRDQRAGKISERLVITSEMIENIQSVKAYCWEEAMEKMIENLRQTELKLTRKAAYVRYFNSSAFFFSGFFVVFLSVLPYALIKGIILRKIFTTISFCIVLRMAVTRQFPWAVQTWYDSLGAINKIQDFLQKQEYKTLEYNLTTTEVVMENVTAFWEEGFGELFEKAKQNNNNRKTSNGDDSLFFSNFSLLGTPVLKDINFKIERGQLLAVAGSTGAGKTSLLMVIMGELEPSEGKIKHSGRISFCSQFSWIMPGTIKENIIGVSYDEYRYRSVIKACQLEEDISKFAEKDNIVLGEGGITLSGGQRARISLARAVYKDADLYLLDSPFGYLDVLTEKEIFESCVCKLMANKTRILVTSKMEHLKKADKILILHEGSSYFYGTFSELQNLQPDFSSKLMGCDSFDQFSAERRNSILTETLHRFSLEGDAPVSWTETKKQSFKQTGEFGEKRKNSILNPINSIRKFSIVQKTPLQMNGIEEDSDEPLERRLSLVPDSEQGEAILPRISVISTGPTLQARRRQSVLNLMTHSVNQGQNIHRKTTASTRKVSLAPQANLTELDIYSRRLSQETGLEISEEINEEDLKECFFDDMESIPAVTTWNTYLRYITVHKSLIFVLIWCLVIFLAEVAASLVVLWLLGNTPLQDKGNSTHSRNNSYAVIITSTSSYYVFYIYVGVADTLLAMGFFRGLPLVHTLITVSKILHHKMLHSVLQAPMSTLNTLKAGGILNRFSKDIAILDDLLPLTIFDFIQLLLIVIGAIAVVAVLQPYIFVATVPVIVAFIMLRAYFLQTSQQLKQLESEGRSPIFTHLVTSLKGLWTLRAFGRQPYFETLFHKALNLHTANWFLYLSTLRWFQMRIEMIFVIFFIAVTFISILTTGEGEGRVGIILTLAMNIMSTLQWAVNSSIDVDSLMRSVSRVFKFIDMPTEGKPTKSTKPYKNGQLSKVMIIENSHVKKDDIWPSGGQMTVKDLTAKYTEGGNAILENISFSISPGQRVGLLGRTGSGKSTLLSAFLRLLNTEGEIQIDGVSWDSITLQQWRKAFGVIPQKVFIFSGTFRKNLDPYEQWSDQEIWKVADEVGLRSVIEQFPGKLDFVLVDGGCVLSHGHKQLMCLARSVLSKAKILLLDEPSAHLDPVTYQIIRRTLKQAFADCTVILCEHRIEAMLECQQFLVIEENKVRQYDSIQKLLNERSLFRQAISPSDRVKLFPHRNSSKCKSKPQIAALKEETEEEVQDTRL

EC30 [1]	EC30 [2]	SMILES
	< 3 µM	CC1CN(c2nc(-n3ccc(OCC(C)(C)C)n3)ccc2C(=O)NS(=O)(=O)c2cccnc2N)C2(CCC2)C1 (single isomer, unassigned) [Compound 2358, N-[(2-amino-3-pyridyl)sulfonyl]-6-[3-(2,2-dimethylpropoxy)pyrazol-1-yl]-2-[6-methyl-8-azaspiro[3.4]octan-8-yl]pyridine-3-carboxamide]
	3 to 10 µM	COC1CCCN(c2cccc(S(=O)(=O)NC(=O)c3cccnc3N3CC(C)CC3(C)C)n2)C1 (stereo not shown) [Compound 2152, N—[[6-(3-methoxy-1-piperidyl)-2-pyridyl]sulfonyl]-2-(2,2,4-trimethylpyrrolidin-1-yl)pyridine-3-carboxamide]
	< 3 µM	CC1CN(c2ncccc2C(=O)NS(=O)(=O)c2cccc(Nc3cccc(C(C)(C)C)c3)n2)C(C)(C)C1 (stereo not shown) [Compound 2142, N—[[6-(3-tert-butylanilino)-2-pyridyl]sulfonyl]-2-(2,2,4-trimethylpyrrolidin-1-yl)pyridine-3-carboxamide]
	< 3 µM	COc1ccc(-c2ccc(C(=O)NS(=O)(=O)c3cccnc3N)c(N3C[C@@H](C)CC3(C)C)n2)cn1 [Compound 2244, N-[(2-amino-3-pyridyl)sulfonyl]-6-(6-methoxy-3-pyridyl)-2-[(4S)-2,2,4-trimethylpyrrolidin-1-yl]pyridine-3-carboxamide]
	< 3 µM	CC1CN(c2ncccc2C(=O)NS(=O)(=O)c2cccc(N3CCCC3c3ccccc3)n2)C(C)(C)C1 (stereo not shown) [Compound 2094, N—[[6-(2-phenylpyrrolidin-1-yl)-2-pyridyl]sulfonyl]-2-(2,2,4-trimethylpyrrolidin-1-yl)pyridine-3-carboxamide]
	3 to 10 µM	CC1CN(c2ncccc2C(=O)NS(=O)(=O)c2cccc(Oc3ccc(Cl)cn3)n2)C(C)(C)C1 (stereo not shown) [Compound 2736]

The remaining lines, values behind:

SMILES	EC30 [1]	EC30 [2]
CC(=O)c1cccc(S(=O)(=O)NC(=O)c2cc(C(C)(C)C)nn2Cc2c(C)cc(C)cc2C)c1 [Compound 332, N-(3-acetylphenyl)sulfonyl-5-tert-butyl-2-[(2,4,6-trimethylphenyl)methyl]pyrazole-3-carboxamide]	+++ (“+++” means <3 uM)	
Cc1cccc(C)c1Oc1nc(-c2cc(F)cc(OCC(C)C)c2)ccc1C(=O)NS(=O)(=O)c1ccn[nH]1 [Compound 671, 2-(2,6-dimethylphenoxy)-6-(3-fluoro-5-isobutoxy-phenyl)-N-(1H-pyrazol-5-ylsulfonyl)pyridine-3-carboxamide]	+++ (“+++” means <3 uM)	
Cc1ccc(Oc2nc(-c3ccccc3)ccc2C(=O)NS(=O)(=O)c2cccc(N)n2)c(C)c1 [Compound 340, N-[(6-amino-2-pyridyl)sulfonyl]-2-(2,4-dimethylphenoxy)-6-phenyl-pyridine-3-carboxamide]	+++ (“+++” means <3 uM)	
COc1ncccc1S(=O)(=O)NC(=O)c1ccc(-c2ccc(C)cc2)nc1-c1ccc(C)cc1 [Compound 524, N-[(2-methoxy-3-pyridyl)sulfonyl]-2,6-bis(p-tolyl)pyridine-3-carboxamide]	++ (“++” means between 3 uM and 10 uM)	
Cc1ccc(Oc2nc(C(C)(C)C)ccc2C(=O)NS(=O)(=O)c2cccc(N)n2)c(C)c1 [Compound 204, N-[(6-amino-2-pyridyl)sulfonyl]-6-tert-butyl-2-(2,4-dimethylphenoxy)pyridine-3-carboxamide]	+++ (“+++” means <3 uM)	
Cc1cc(C)c(Oc2nc(C3=CCC(C)(C)CC3)ccc2C(=O)NS(=O)(=O)c2ccc[nH]c2=O)c(C)c1 [Compound 573, 6-(4,4-dimethylcyclohexen-1-yl)-N-[(2-oxo-1H-pyridin-3-yl)sulfonyl]-2-(2,4,6-trimethylphenoxy)pyridine-3-carboxamide]	+++ (“+++” means <3 uM)	
CCOc1ccc(-c2ccc(C(=O)NS(=O)(=O)c3cccc(N)n3)c(Oc3c(C)cc(C)cc3C)n2)cc1F [Compound 161, N-[(6-amino-2-pyridyl)sulfonyl]-6-(4-ethoxy-3-fluoro-phenyl)-2-(2,4,6-trimethylphenoxy)pyridine-3-carboxamide]	+++ (“+++” means <3 uM)	
